Measurements from BigSolDB 2.1.

Clc1cccnc1Cl
solubility (mole fraction)
Details | 278.15 K | 283.15 K | 288.15 K | 293.15 K | 298.15 K | 303.15 K | 308.15 K | 313.15 K
in 1,4-dioxane | – | – | 0.241 | 0.285 | 0.332 | 0.382 | 0.442 | 0.514
in acetonitrile | 0.061 | 0.0806 | 0.108 | 0.137 | 0.178 | 0.23 | 0.295 | 0.389
in cyclohexane | – | 0.0334 | 0.045 | 0.061 | 0.0796 | 0.106 | 0.145 | 0.187
in dichloromethane | 0.213 | 0.238 | 0.27 | 0.304 | 0.346 | 0.386 | 0.432 | 0.489
in ethanol | 0.0314 | 0.0418 | 0.0558 | 0.071 | 0.0902 | 0.115 | 0.145 | 0.188
in ethyl acetate | 0.166 | 0.194 | 0.223 | 0.259 | 0.302 | 0.349 | 0.398 | 0.46
in isobutanol | 0.0394 | 0.0507 | 0.0654 | 0.0836 | 0.108 | 0.14 | 0.18 | 0.232
in isopropanol | 0.032 | 0.0401 | 0.0532 | 0.0687 | 0.0895 | 0.117 | 0.154 | 0.2
in methanol | 0.0181 | 0.0259 | 0.0362 | 0.0505 | 0.0676 | 0.0943 | 0.129 | 0.178
in methyl acetate | 0.146 | 0.172 | 0.203 | 0.237 | 0.28 | 0.321 | 0.374 | 0.425
in n-butanol | 0.0489 | 0.0607 | 0.0798 | 0.0983 | 0.123 | 0.155 | 0.197 | 0.249
in n-butyl acetate | 0.185 | 0.213 | 0.246 | 0.282 | 0.324 | 0.372 | 0.424 | 0.487
in n-hexane | 0.0154 | 0.0216 | 0.029 | 0.0387 | 0.0516 | 0.0684 | 0.0906 | 0.123
in n-propanol | 0.0378 | 0.0479 | 0.0606 | 0.0804 | 0.1 | 0.129 | 0.164 | 0.211
